Assay results from patent US10118935B2, “Melampomagnolide B dimers” (priority 2014, dated 2018).

What was measured:
TK-10 = assay: NCI 60 cell line five dose, Renal Cancer
NCI/ADR-RES = assay: NCI 60 cell line five dose, Ovarian Cancer; settings: NCI/ADR-
MALME-3M = assay: NCI 60 cell line five dose, Melanoma; settings: MAL1ME-3M
UACC-257 = assay: NCI 60 cell line five dose, Melanoma
A498 = assay: NCI 60 cell line five dose, Renal Cancer
HCT-116 = assay: NCI 60 cell line five dose, Colon Cancer
HCC-2998 = assay: NCI 60 cell line five dose, Colon Cancer
OVCAR-4 = assay: NCI 60 cell line five dose, Ovarian Cancer
COLO 205 = assay: NCI 60 cell line five dose, Colon Cancer
SF-539 = assay: NCI 60 cell line five dose, CNS Cancer
U251 = assay: NCI 60 cell line five dose, CNS Cancer
LOX IMVI = assay: NCI 60 cell line five dose, Melanoma
CAKI-1 = assay: NCI 60 cell line five dose, Renal Cancer
A549/ATCC = assay: NCI 60 cell line five dose, Non-Small Cell Lung Cancer
SF-295 = assay: NCI 60 cell line five dose, CNS Cancer
NCI-H23 = assay: NCI 60 cell line five dose, Non-Small Cell Lung Cancer
NCI-H226 = assay: as above
OVCAR-3 = assay: NCI 60 cell line five dose, Ovarian Cancer
SR = assay: NCI 60 cell line five dose, Leukemia
T-47D = assay: NCI 60 cell line five dose, Breast Cancer
NCI-H460 = assay: NCI 60 cell line five dose, Non-Small Cell Lung Cancer
SN12C = assay: NCI 60 cell line five dose, Renal Cancer
BT-549 = assay: NCI 60 cell line five dose, Breast Cancer
HOP-92 = assay: NCI 60 cell line five dose, Non-Small Cell Lung Cancer

## C=C1C(=O)O[C@H]2[C@H]1CC/C(COC(=O)NCCCCNC(=O)OC/C1=C/CC[C@@]3(C)O[C@H]3[C@H]3OC(=O)C(=C)[C@@H]3CC1)=C\CC[C@@]1(C)O[C@@H]21 [JVM 3-54, bis(((1aR,7aS,10aS,10bS,E)-1a-Methyl-8-methylene-9-oxo-1a,2,3,6,7,7a,8,9,10a,10b-decahydrooxireno[2′,3′:9,10]cyclodeca[1,2-b]furan-5-yl)methyl)butane-1,4-diyldicarbamate]
TK-10
  GI50: 1.61 µM
  TGI: 4.12 µM
TK-10; Log10 Concentration −4.0
  Percent Growth: −99%
TK-10; Log10 Concentration −5.0
  Percent Growth: −47%
TK-10; Log10 Concentration −6.0
  Percent Growth: 75%
TK-10; Log10 Concentration −7.0
  Percent Growth: 93%
TK-10; Log10 Concentration −8.0
  Percent Growth: 97%
TK-10; read-out: LC50
  CC50: 11.3 µM
NCI/ADR-RES
  GI50: 37.7 µM
NCI/ADR-RES; Log10 Concentration −4.0
  Percent Growth: 23%
NCI/ADR-RES; Log10 Concentration −5.0
  Percent Growth: 86%
NCI/ADR-RES; Log10 Concentration −6.0
  Percent Growth: 99%
NCI/ADR-RES; Log10 Concentration −7.0
  Percent Growth: 90%
NCI/ADR-RES; Log10 Concentration −8.0
  Percent Growth: 94%
NCI/ADR-RES; read-out: LC50
  CC50: > 100 µM
MALME-3M
  GI50: 0.452 µM
  TGI: 2.19 µM
MALME-3M; Log10 Concentration −4.0
  Percent Growth: −64%
MALME-3M; Log10 Concentration −5.0
  Percent Growth: −56%
MALME-3M; Log10 Concentration −6.0
  Percent Growth: 29%
MALME-3M; Log10 Concentration −7.0
  Percent Growth: 90%
MALME-3M; Log10 Concentration −8.0
  Percent Growth: 95%
MALME-3M; read-out: LC50
  CC50: 8.43 µM
UACC-257
  GI50: 1.68 µM
  TGI: 4.99 µM
UACC-257; Log10 Concentration −4.0
  Percent Growth: −82%
UACC-257; Log10 Concentration −5.0
  Percent Growth: −32%
UACC-257; Log10 Concentration −6.0
  Percent Growth: 74%
UACC-257; Log10 Concentration −7.0
  Percent Growth: 92%
UACC-257; Log10 Concentration −8.0
  Percent Growth: 95%
UACC-257; read-out: LC50
  CC50: 22.9 µM
A498
  GI50: 6.36 µM
  TGI: 18.9 µM
A498; Log10 Concentration −4.0
  Percent Growth: −99%
A498; Log10 Concentration −5.0
  Percent Growth: 38%
A498; Log10 Concentration −6.0
  Percent Growth: 99%
A498; Log10 Concentration −7.0
  Percent Growth: 94%
A498; Log10 Concentration −8.0
  Percent Growth: 97%
A498; read-out: LC50
  CC50: 43.9 µM
HCT-116
  GI50: 1.12 µM
  TGI: 2.63 µM
HCT-116; Log10 Concentration −4.0
  Percent Growth: −88%
HCT-116; Log10 Concentration −5.0
  Percent Growth: −78%
HCT-116; Log10 Concentration −6.0
  Percent Growth: 56%
HCT-116; Log10 Concentration −7.0
  Percent Growth: 85%
HCT-116; Log10 Concentration −8.0
  Percent Growth: 99%
HCT-116; read-out: LC50
  CC50: 6.19 µM
HCC-2998
  GI50: 2.35 µM
  TGI: 4.78 µM
HCC-2998; Log10 Concentration −4.0
  Percent Growth: −78%
HCC-2998; Log10 Concentration −5.0
  Percent Growth: −52%
HCC-2998; Log10 Concentration −6.0
  Percent Growth: 110%
HCC-2998; Log10 Concentration −7.0
  Percent Growth: 99%
HCC-2998; Log10 Concentration −8.0
  Percent Growth: 97%
HCC-2998; read-out: LC50
  CC50: 9.73 µM
OVCAR-4
  GI50: 1.77 µM
OVCAR-4; Log10 Concentration −4.0
  Percent Growth: −98%
OVCAR-4; Log10 Concentration −5.0
  Percent Growth: −5%
OVCAR-4; Log10 Concentration −6.0
  Percent Growth: 68%
OVCAR-4; Log10 Concentration −7.0
  Percent Growth: 82%
OVCAR-4; Log10 Concentration −8.0
  Percent Growth: 93%
OVCAR-4; read-out: LC50
  CC50: 30.5 µM
COLO 205
  GI50: 0.466 µM
  TGI: 1.8 µM
COLO 205; Log10 Concentration −4.0
  Percent Growth: −61%
COLO 205; Log10 Concentration −5.0
  Percent Growth: −73%
COLO 205; Log10 Concentration −6.0
  Percent Growth: 25%
COLO 205; Log10 Concentration −7.0
  Percent Growth: 100%
COLO 205; Log10 Concentration −8.0
  Percent Growth: 100%
COLO 205; read-out: LC50
  CC50: 5.79 µM
SF-539
  GI50: 1.55 µM
  TGI: 3.71 µM
SF-539; Log10 Concentration −4.0
  Percent Growth: −100%
SF-539; Log10 Concentration −5.0
  Percent Growth: −57%
SF-539; Log10 Concentration −6.0
  Percent Growth: 75%
SF-539; Log10 Concentration −7.0
  Percent Growth: 93%
SF-539; Log10 Concentration −8.0
  Percent Growth: 103%
SF-539; read-out: LC50
  CC50: 8.84 µM
U251
  GI50: 2.94 µM
  TGI: 9.83 µM
U251; Log10 Concentration −4.0
  Percent Growth: −95%
U251; Log10 Concentration −5.0
  Percent Growth: −1%
U251; Log10 Concentration −6.0
  Percent Growth: 95%
U251; Log10 Concentration −7.0
  Percent Growth: 101%
U251; Log10 Concentration −8.0
  Percent Growth: 99%
U251; read-out: LC50
  CC50: 33.3 µM
LOX IMVI
  GI50: 0.519 µM
  TGI: 1.92 µM
LOX IMVI; Log10 Concentration −4.0
  Percent Growth: −74%
LOX IMVI; Log10 Concentration −5.0
  Percent Growth: −84%
LOX IMVI; Log10 Concentration −6.0
  Percent Growth: 33%
LOX IMVI; Log10 Concentration −7.0
  Percent Growth: 93%
LOX IMVI; Log10 Concentration −8.0
  Percent Growth: 93%
LOX IMVI; read-out: LC50
  CC50: 5.15 µM
CAKI-1
  GI50: 10.8 µM
  TGI: 23 µM
CAKI-1; Log10 Concentration −4.0
  Percent Growth: −97%
CAKI-1; Log10 Concentration −5.0
  Percent Growth: 55%
CAKI-1; Log10 Concentration −6.0
  Percent Growth: 91%
CAKI-1; Log10 Concentration −7.0
  Percent Growth: 90%
CAKI-1; Log10 Concentration −8.0
  Percent Growth: 93%
CAKI-1; read-out: LC50
  CC50: 49.1 µM
A549/ATCC
  GI50: 8.02 µM
  TGI: 23.1 µM
A549/ATCC; Log10 Concentration −4.0
  Percent Growth: −79%
A549/ATCC; Log10 Concentration −5.0
  Percent Growth: 45%
A549/ATCC; Log10 Concentration −6.0
  Percent Growth: 99%
A549/ATCC; Log10 Concentration −7.0
  Percent Growth: 99%
A549/ATCC; Log10 Concentration −8.0
  Percent Growth: 100%
A549/ATCC; read-out: LC50
  CC50: 58.7 µM
SF-295
  GI50: 13 µM
  TGI: 27.4 µM
SF-295; Log10 Concentration −4.0
  Percent Growth: −87%
SF-295; Log10 Concentration −5.0
  Percent Growth: 68%
SF-295; Log10 Concentration −6.0
  Percent Growth: 98%
SF-295; Log10 Concentration −7.0
  Percent Growth: 89%
SF-295; Log10 Concentration −8.0
  Percent Growth: 92%
SF-295; read-out: LC50
  CC50: 57.7 µM
NCI-H23
  GI50: 2.18 µM
  TGI: 5.54 µM
NCI-H23; Log10 Concentration −4.0
  Percent Growth: −70%
NCI-H23; Log10 Concentration −5.0
  Percent Growth: 32%
NCI-H23; Log10 Concentration −6.0
  Percent Growth: 92%
NCI-H23; Log10 Concentration −7.0
  Percent Growth: 95%
NCI-H23; Log10 Concentration −8.0
  Percent Growth: 95%
NCI-H23; read-out: LC50
  CC50: 30.4 µM
NCI-H226
  GI50: 11.4 µM
  TGI: 30.5 µM
NCI-H226; Log10 Concentration −4.0
  Percent Growth: −60%
NCI-H226; Log10 Concentration −5.0
  Percent Growth: 57%
NCI-H226; Log10 Concentration −6.0
  Percent Growth: 100%
NCI-H226; Log10 Concentration −7.0
  Percent Growth: 97%
NCI-H226; Log10 Concentration −8.0
  Percent Growth: 98%
NCI-H226; read-out: LC50
  CC50: 81.6 µM
OVCAR-3
  GI50: 0.693 µM
  TGI: 2.01 µM
OVCAR-3; Log10 Concentration −4.0
  Percent Growth: −96%
OVCAR-3; Log10 Concentration −5.0
  Percent Growth: −93%
OVCAR-3; Log10 Concentration −6.0
  Percent Growth: 40%
OVCAR-3; Log10 Concentration −7.0
  Percent Growth: 101%
OVCAR-3; Log10 Concentration −8.0
  Percent Growth: 101%
OVCAR-3; read-out: LC50
  CC50: 4.76 µM
SR
  GI50: 0.549 µM
  TGI: 3.51 µM
SR; Log10 Concentration −4.0
  Percent Growth: −34%
SR; Log10 Concentration −5.0
  Percent Growth: −29%
SR; Log10 Concentration −6.0
  Percent Growth: 35%
SR; Log10 Concentration −7.0
  Percent Growth: 94%
SR; Log10 Concentration −8.0
  Percent Growth: 93%
SR; read-out: LC50
  CC50: > 100 µM
T-47D
  GI50: 1.51 µM
  TGI: 4.17 µM
T-47D; Log10 Concentration −4.0
  Percent Growth: −32%
T-47D; Log10 Concentration −5.0
  Percent Growth: −43%
T-47D; Log10 Concentration −6.0
  Percent Growth: 70%
T-47D; Log10 Concentration −7.0
  Percent Growth: 93%
T-47D; Log10 Concentration −8.0
  Percent Growth: 95%
T-47D; read-out: LC50
  CC50: > 100 µM
NCI-H460
  GI50: 4.61 µM
  TGI: 18 µM
NCI-H460; Log10 Concentration −4.0
  Percent Growth: −71%
NCI-H460; Log10 Concentration −5.0
  Percent Growth: 24%
NCI-H460; Log10 Concentration −6.0
  Percent Growth: 101%
NCI-H460; Log10 Concentration −7.0
  Percent Growth: 103%
NCI-H460; Log10 Concentration −8.0
  Percent Growth: 102%
NCI-H460; read-out: LC50
  CC50: 60.7 µM
SN12C
  GI50: 2.75 µM
  TGI: 10.1 µM
SN12C; Log10 Concentration −4.0
  Percent Growth: −84%
SN12C; Log10 Concentration −6.0
  Percent Growth: 89%
SN12C; Log10 Concentration −7.0
  Percent Growth: 101%
SN12C; Log10 Concentration −8.0
  Percent Growth: 100%
SN12C; read-out: LC50
  CC50: 39.5 µM
BT-549
  GI50: 1.6 µM
  TGI: 3.63 µM
BT-549; Log10 Concentration −4.0
  Percent Growth: −98%
BT-549; Log10 Concentration −5.0
  Percent Growth: −62%
BT-549; Log10 Concentration −6.0
  Percent Growth: 79%
BT-549; Log10 Concentration −7.0
  Percent Growth: 91%
BT-549; Log10 Concentration −8.0
  Percent Growth: 100%
HOP-92
  GI50: 0.287 µM
  TGI: 1.06 µM
HOP-92; Log10 Concentration −4.0
  Percent Growth: −92%
HOP-92; Log10 Concentration −5.0
  Percent Growth: −76%
HOP-92; Log10 Concentration −6.0
  Percent Growth: 2%
HOP-92; Log10 Concentration −7.0
  Percent Growth: 91%
HOP-92; Log10 Concentration −8.0
  Percent Growth: 91%
